System: Candida strains (clinical isolates from patients suffering from Candidal vaginitis)
Experiment: Inhibition of Candida growth in broth pH 4.5 (turbidity after 72 hours)
Type: cell-based
Conditions: for Candida growth, Strain 1: Strain 1, 37.5° C.; for Candida growth, Strain 2: Strain 2, 37.5° C.; for Candida growth, Strain 3: Strain 3, 37.5° C.; for Candida growth, Strain 4: Strain 4, 37.5° C.; for Candida growth, Strain 5: Strain 5, 37.5° C.; for Candida growth, Strain 6: Strain 6, 37.5° C.; for Candida growth, Strain 7: Strain 7, 37.5° C.; for Candida growth, Strain 8: Strain 8, 37.5° C.; for Candida growth, Strain 9: Strain 9, 37.5° C.; for Candida growth, Strain 10: Strain 10, 37.5° C.; for Candida growth, Strain 11: Strain 11, 37.5° C.; for number of the 11 Candida strains that grew: of 11 strains
Excerpt: 1. […] Unless otherwise illustrated, the solutions in the experiments are all aqueous solutions. 2. Experimental Method: (1) Experimental Materials:
a) Experimental strains: 11 Candida strains, all of which were screened from the clinical isolates from patients suffering from Candidal vaginitis, and were capable of growing in broth comprising 0.025% (w/v) sodium benzoate.
b) Broth: 1% yeast extract powder, 9% sucrose, 0.025% Manganese sulfate (MnSO4.4H2O), 0.058% Magnesium sulphate (MgSO4.7H2O), and 0.9% lactic acid, wherein the pH value was adjusted to 4.5 and the broth was sterilized for use;
(2) Experimental Grouping:
The requirements for aseptic technique were strictly followed to prepare the following groups of sterile test tubes: • a) sodium benzoate group: a test tube containing 5 ml broth, to which 0.025% (w/v) sodium benzoate was added; • b) sodium benzoate+sodium dehydroacetate group: 6 test tubes each containing 5 ml broth, wherein 0.0025% (w/v), 0.005% (w/v), and 0.01% (w/v) sodium dehydroacetate were added to three tubes, respectively; 0.025% (w/v) sodium benzoate was added to each of the rest 3 tubes, and then 0.0025% (w/v), 0.005% (w/v), 0.01% (w/v) sodium dehydroacetate were added to them, respectively; • c) sodium benzoate+sodium propionate group: 6 test tubes each containing 5 ml broth, wherein 0.0625% (w/v), 0.125% (w/v), and 0.25% (w/v) sodium propionate were added to three tubes, respectively; 0.025% (w/v) sodium benzoate was added to each of the rest 3 tubes, and then 0.0625% (w/v), 0.125% (w/v), and 0.25% (w/v) sodium propionate were added to them, respectively; • d) sodium benzoate+potassium sorbate group: 6 test tubes each containing 5 ml broth, wherein 0.00625% (w/v), 0.0125% (w/v), and 0.025% (w/v) potassium sorbate were added to 3 tubes, respectively; 0.025% (w/v) sodium benzoate was added to each of the rest 3 tubes, and then 0.00625% (w/v), 0.0125% (w/v), and 0.025% (w/v) potassium sorbate were added to them, respectively; • e) sodium benzoate+Ethylparaben: 6 test tubes each containing 5 ml broth, wherein 0.0125% (w/v), 0.025% (w/v), and 0.05% (w/v) Ethylparaben were added to 3 tubes, respectively; 0.025% (w/v) sodium benzoate was added to each of the rest 3 tubes, and then 0.0125% (w/v), 0.025% (w/v), and 0.05% (w/v) Ethylparaben were added to them, respectively; • f) Positive control: a broth-containing test tube with Candida but without sodium benzoate, sodium dehydroacetate, sodium propionate, sorbic acid, or Ethylparaben. • g) Negative control: a broth-containing test tube without Candida, sodium benzoate, sodium dehydroacetate, sodium propionate, sorbic acid, or Ethylparaben; (3) Experimental Methods:
The Candidal suspensions were prepared under stringent aseptic manipulation techniques. The colonies of various Candidal strains were diluted with saline, respectively. The turbidity was adjusted with a turbiditor to 0.5M (about 10^8CFU/ml), and then 1 ml 0.5M bacterial solution was added to 9 ml broth and was 10 times diluted, so that each Candidal suspension comprised Candidal organisms at 10^7CFU/ml.
Under stringent aseptic manipulation techniques, 100 μl bacterial solution thus prepared was added to each of the aforesaid a˜f test tubes and the positive control tube, and no bacterial solution was added to the negative control tube g.
These tubes were incubated in a biochemical incubator at 37.5° C. for 72 hours. The turbidity of the test tubes were observed and recorded.

O=C([O-])c1ccccc1.[Na+] [0.025% sodium benzoate, sodium benzoate]
Candida growth, Strain 1: + | Candida growth, Strain 2: + | Candida growth, Strain 3: + | Candida growth, Strain 4: + | Candida growth, Strain 5: + | Candida growth, Strain 6: + | Candida growth, Strain 7: + | Candida growth, Strain 8: + | Candida growth, Strain 9: + | Candida growth, Strain 10: + | Candida growth, Strain 11: + | number of the 11 Candida strains that grew: 11/11

C/C=C/C=C/C(=O)[O-].[K+] [0.00625% potassium sorbate, potassium sorbate]
Candida growth, Strain 1: + | Candida growth, Strain 2: + | Candida growth, Strain 3: + | Candida growth, Strain 4: + | Candida growth, Strain 5: + | Candida growth, Strain 6: + | Candida growth, Strain 7: + | Candida growth, Strain 8: + | Candida growth, Strain 9: − | Candida growth, Strain 10: + | Candida growth, Strain 11: + | number of the 11 Candida strains that grew (listed as 0.00625% (w/v) potassium sorbate): 10

CCOC(=O)c1ccc(O)cc1 [0.0125% Ethylparaben, Ethylparaben]
Candida growth, Strain 1: + | Candida growth, Strain 2: + | Candida growth, Strain 3: + | Candida growth, Strain 4: + | Candida growth, Strain 5: + | Candida growth, Strain 6: + | Candida growth, Strain 7: + | Candida growth, Strain 8: + | Candida growth, Strain 9: + | Candida growth, Strain 10: + | Candida growth, Strain 11: + | number of the 11 Candida strains that grew (listed as 0.0125% (w/v) Ethylparaben): 11

CCOC(=O)c1ccc(O)cc1 [0.025% Ethylparaben, Ethylparaben]
Candida growth, Strain 1: + | Candida growth, Strain 2: + | Candida growth, Strain 3: + | Candida growth, Strain 4: + | Candida growth, Strain 5: + | Candida growth, Strain 6: + | Candida growth, Strain 7: + | Candida growth, Strain 8: + | Candida growth, Strain 9: + | Candida growth, Strain 10: + | Candida growth, Strain 11: +

CC(=O)c1c([O-])cc(C)oc1=O.[Na+] [0.0025% sodium dehydroacetate, sodium dehydroacetate]
Candida growth, Strain 1: + | Candida growth, Strain 2: + | Candida growth, Strain 3: + | Candida growth, Strain 4: + | Candida growth, Strain 5: − | Candida growth, Strain 6: + | Candida growth, Strain 7: + | Candida growth, Strain 8: + | Candida growth, Strain 9: + | Candida growth, Strain 10: + | Candida growth, Strain 11: + | number of the 11 Candida strains that grew (listed as 0.0025% (w/v) sodium dehydroacetate): 10

CCC(=O)[O-].[Na+] [0.0625% sodium propionate, sodium propionate]
Candida growth, Strain 1: + | Candida growth, Strain 2: + | Candida growth, Strain 3: + | Candida growth, Strain 4: + | Candida growth, Strain 5: + | Candida growth, Strain 6: + | Candida growth, Strain 7: + | Candida growth, Strain 8: + | Candida growth, Strain 9: + | Candida growth, Strain 10: + | Candida growth, Strain 11: + | number of the 11 Candida strains that grew (listed as 0.0625% (w/v) sodium propionate): 11

C/C=C/C=C/C(=O)[O-].[K+] [0.025% potassium sorbate, potassium sorbate]
Candida growth, Strain 1: + | Candida growth, Strain 2: − | Candida growth, Strain 3: + | Candida growth, Strain 4: + | Candida growth, Strain 5: + | Candida growth, Strain 6: + | Candida growth, Strain 7: + | Candida growth, Strain 8: + | Candida growth, Strain 9: − | Candida growth, Strain 10: + | Candida growth, Strain 11: + | number of the 11 Candida strains that grew (listed as 0.025% (w/v) potassium sorbate): 9

CC(=O)c1c([O-])cc(C)oc1=O.[Na+] [0.01% sodium dehydroacetate, sodium dehydroacetate]
Candida growth, Strain 1: + | Candida growth, Strain 2: − | Candida growth, Strain 3: + | Candida growth, Strain 4: + | Candida growth, Strain 5: − | Candida growth, Strain 6: + | Candida growth, Strain 7: + | Candida growth, Strain 8: + | Candida growth, Strain 9: − | Candida growth, Strain 10: + | Candida growth, Strain 11: − | number of the 11 Candida strains that grew (listed as 0.01% (w/v) sodium dehydroacetate): 7

CCC(=O)[O-].[Na+] [0.25% sodium propionate, sodium propionate]
Candida growth, Strain 1: − | Candida growth, Strain 2: − | Candida growth, Strain 3: + | Candida growth, Strain 4: + | Candida growth, Strain 5: − | Candida growth, Strain 6: − | Candida growth, Strain 7: + | Candida growth, Strain 8: + | Candida growth, Strain 9: − | Candida growth, Strain 10: + | Candida growth, Strain 11: − | number of the 11 Candida strains that grew (listed as 0.25% (w/v) sodium propionate): 5

C/C=C/C=C/C(=O)[O-].[K+] [0.0125% potassium sorbate, potassium sorbate]
Candida growth, Strain 1: + | Candida growth, Strain 2: − | Candida growth, Strain 3: + | Candida growth, Strain 4: + | Candida growth, Strain 5: + | Candida growth, Strain 6: + | Candida growth, Strain 7: + | Candida growth, Strain 8: + | Candida growth, Strain 9: − | Candida growth, Strain 10: + | Candida growth, Strain 11: +

CCOC(=O)c1ccc(O)cc1 [0.05% Ethylparaben, Ethylparaben]
Candida growth, Strain 1: − | Candida growth, Strain 2: + | Candida growth, Strain 3: + | Candida growth, Strain 4: + | Candida growth, Strain 5: − | Candida growth, Strain 6: + | Candida growth, Strain 7: + | Candida growth, Strain 8: + | Candida growth, Strain 9: − | Candida growth, Strain 10: + | Candida growth, Strain 11: + | number of the 11 Candida strains that grew (listed as 0.05% (w/v) Ethylparaben): 8

CC(=O)c1c([O-])cc(C)oc1=O.[Na+] [0.005% sodium dehydroacetate, sodium dehydroacetate]
Candida growth, Strain 1: + | Candida growth, Strain 2: + | Candida growth, Strain 3: + | Candida growth, Strain 4: + | Candida growth, Strain 5: − | Candida growth, Strain 6: + | Candida growth, Strain 7: + | Candida growth, Strain 8: + | Candida growth, Strain 9: − | Candida growth, Strain 10: + | Candida growth, Strain 11: +
